This test deals with GSK3β (Homo sapiens, UniProt P49841). The experiment in a line: Inhibitory activity against GSK3β (33P-ATP phosphorylation of prephosphorylated GS1 peptide). The test is classed as biochemical. Conditions: protocol 3: 7.5 μM GS1 peptide, 10 μM ATP, 50 mM Hepes pH 7.2, one hour at room temperature. On the procedure:
Four different protocols can be used.
In a first protocol: 7.5 μM of prephosphorylated GS1 peptide and 10 μM ATP (containing 300,000 cpm of ^33P-ATP) were incubated in 25 mM Tris-HCl, pH 7.5, 0.6 mM DTT, 6 mM MgCl2, 0.6 mM EGTA, 0.05 mg/ml BSA buffer for 1 hour at room temperature in the presence of GSK3beta (total reaction volume: 100 microliters).
In a second protocol: 4.1 μM of prephosphorylated GS1 peptide and 42 μM ATP (containing 260,000 cpm ^33P-ATP) were incubated in 80 mM Mes-NaOH, pH 6.5, 1 mM Mg acetate, 0.5 mM EGTA, 5 mM 2-mercaptoethanol, 0.02% Tween 20, 10% glycerol buffer for 2 hours at room temperature in the presence of GSK3beta.
In a third protocol: 7.5 μM of prephosphorylated GS1 peptide and 10 μM ATP (containing 300,000 cpm of ^33P-ATP) were incubated in 50 mM Hepes, pH 7.2, 1 mM DTT, 1 mM MgCl2, 1 mM EGTA, 0.01% Tween 20 buffer for one hour at room temperature in the presence of GSK3beta (total reaction volume: 100 microliters). […]
The reaction was stopped with 100 microliters of a solution made of 25 g polyphosphoric acid (85% P2O5), 126 ml 85% H3PO4, H2O to 500 ml and then diluted to 1:100 before use. […] Incorporated ^33P radioactivity was determined by liquid scintillation spectrometry. […]

Sequence of GSK3β (P49841 whole entry): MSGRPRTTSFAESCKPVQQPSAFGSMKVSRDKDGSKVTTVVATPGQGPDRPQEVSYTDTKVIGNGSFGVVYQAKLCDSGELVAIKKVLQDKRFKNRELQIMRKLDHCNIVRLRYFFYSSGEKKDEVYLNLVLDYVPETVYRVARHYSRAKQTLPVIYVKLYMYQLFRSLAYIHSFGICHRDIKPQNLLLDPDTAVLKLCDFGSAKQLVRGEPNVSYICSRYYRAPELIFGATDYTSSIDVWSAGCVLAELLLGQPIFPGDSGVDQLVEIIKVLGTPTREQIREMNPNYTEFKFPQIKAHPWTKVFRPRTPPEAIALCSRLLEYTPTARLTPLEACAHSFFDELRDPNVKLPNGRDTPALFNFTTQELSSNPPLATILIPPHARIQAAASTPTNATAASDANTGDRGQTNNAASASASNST

In the case of `[O-][n+]1cc(NCC(O)c2ccccc2)nc(-c2ccncc2)c1` (racemic) [compound 2, (+/−)2-[(4-oxido-6-pyridin-4-ylpyrazin-2-yl)amino]-1-phenylethanol], the IC50 – broadly, the concentration needed to halve the response being measured – amounted to 506 nM.

Values taken from patent publication US8202874B2, “Substituted N-oxide pyrazine derivatives” (Mitsubishi Tanabe Pharma Corporation, priority 2008, dated 2012).
